Data: patent publication US20200338115A1, “PHARMACEUTICAL COMPOSITION FOR PREVENTION OF RECURRENT URINARY TRACT INFECTION” (priority 2019, published 2020)

Key:
[1] = pH 6; cited from earlier work
[2] = tested on: uropathogenic Escherichia coli (UPEC); assay: Rat UTI model (Example 1): urine bacterial counts after oral PPS; format: in vivo, Sprague-Dawley (SD) rats
Source text: (§1) UPEC is known as the primary cause of UTI.
(§2) The rats are sacrificed at Day 14.

[3] = tested on: peripheral red blood cell (RBC) counts; assay: Rat UTI model (Example 1): peripheral red blood cell counts; details: PPS 30 mg/kg/day oral Day −14 to Day 0; control, UTI model and PPS prevention groups
Protocol: The current example treats Sprague-Dawley (SD) rats with uropathogenic Escherichia coli (UPEC) to establish the rat UTI model. […] The UPEC used in the current example is ATCC®700336™, designation: J96 (serotype O4:K6), purchased from Food Industry Research and Development Institute of Taiwan. The UPEC is stored in trypticase soy agar/broth, and is centrifuged at 5,000 rpm for 10 minutes. Pellets of the UPEC after the centrifugation are dissolved in 10 mL sterile phosphate buffered saline (PBS). The cell density of the UPEC is adjusted to an optical density (OD600) of 1 to 1.1. This optical density is corresponded to the cell density of 8×10^7 to 2×10^8 colony forming units (CFU)/mL. The UPEC is then made into a 250 μL 0.9% N/S solution of 8×10^7 CFU for treating the rats.
The UTI model group and the PPS prevention group are infected with the UPEC by trans-urethral catherization on Day 1. The PPS prevention group is treated with the PPS by oral gavage with a 18G stainless-steel gavage needle attached to a 3 mL tuberculin syringe from Day −14 to Day 0. The PPS dosage for the rats in the current example is 30 mg/kg/day. […] The UPEC in the LB broths and on the LB agar plates are quantified after the incubation. […]

[4] = tested on: peripheral white blood cell (WBC) counts; assay: Rat UTI model (Example 1): peripheral white blood cell counts; format: in vivo, Sprague-Dawley (SD) rats; details: PPS 30 mg/kg/day oral Day −14 to Day 0
Source text: as §1, §2
FIG. 4 is a bar chart comparing peripheral white blood cell (WBC) counts in the control group, the UTI model group, and the PPS prevention group, in accordance with an embodiment of the present disclosure. The WBC counts in different groups reflect conditions of the UPEC infection in the rats: a higher WBC count may represent a more severe UPEC infection. […] The WBC counts in the UTI model group have remained as the highest among 3 groups on Day 1, Day 3, and Day 7.

IL-1β = assay: Rat UTI model (Example 1): Luminex assay of peripheral blood IL-1β; format: in vivo, Sprague-Dawley (SD) rats; details: PPS 30 mg/kg/day oral Day −14 to Day 0; Day 3
Source text: as §1, §2
(§3) Luminex assays are used to evaluate peripheral blood biomarkers relevant to infection or inflammation. FIG. 6 is a bar chart comparing the Luminex assay results for IL-1β in the control group, the UTI model group, and the PPS prevention group, in accordance with an embodiment of the present disclosure. IL-1β level is relevant to a current inflammation or infection, and a higher IL-1β level indicates a more severe inflammation. […] FIG. 7 is a bar chart comparing the Luminex assay results for TNF-α in the control group, the UTI model group, and the PPS prevention group, in accordance with an embodiment of the present disclosure. TNF-α is a cytokine that promotes inflammatory responses, and a higher TNF-α level indicates a more severe inflammation in the rats.

[5] = tested on: uropathogenic Escherichia coli (UPEC); assay: Rat UTI model, low-dose PPS (Example 3): urine bacterial counts; format: in vivo, SD rats; details: for urine bacterial counts compared with UTI model group: Day 3
Source text: (§4) The purpose of the current example is to investigate effects of a reduced dosage of PPS for preventing UTI in the rat URI model. The SD rats are randomized and grouped into a control group (N=7), an UTI model group (N=10), a normal PPS dosage group (N=10), and a reduced PPS dosage group (N=5). The UTI model group, the normal PPS dosage group, and the reduced PPS dosage group are infected with UPEC on Day 1. The method of infection and the amount of UPEC being injected to the rats of the current study are the same as the UPEC infection in Example 1. […] The control group is not infected by the UPEC or treated by PPS. Urine samples and the blood samples of the rats are collected on Day 0, 3, and 7, using the same techniques and tools as described in Example 1. The collected urine samples are diluted 10, 10^2, 10^3, 10^4, and 10^5 folds, and the diluted urine samples are cultured on BSA plates and incubated for 12 hours at 37° C. UPEC colonies on the BSA plates are counted after the incubation. In FIGS. 10 and 11, the UTI model group is denoted as “UTI”, the normal PPS dosage group is denoted as “UROpre”, and the reduced PPS dosage group is denoted as “low UROpre”.

[6] = orally administered PPS, previous studies; cited from earlier work
[7] = tested on: recurrent urinary tract infection (rUTI); assay: Phase II randomized controlled trial of oral PPS for prevention of rUTI (Example 2): efficacy; format: in vivo, human subjects
Source text: The current example is a multicenter, prospective, open-label, phase II, randomized controlled trial. The purpose of the current example is to investigate the effects of orally administered PPS in the prevention of rUTI in the human subjects. The study period of the current trial is 16 weeks, which is expected to cover most of the rUTI episodes.
The human subjects in the current example are screened and recruited in the OPD. Eligible patients are 20-70 year-old female patients with confirmed UTI ≥2 times in the past 6 months, or ≥3 times in the past 12 months, and had prior antibiotics treatment for previous UTI episodes(s). The eligible patients are without lower urinary tract symptoms and completely recovered from the last UTI episode. Patients with the following criteria are also excluded: allergic reaction to PPS, undergoing surgery within 24 week in a follow-up period of the current trial, participating in any intervention study 90 days before screening, bladder instillation with hyaluronic acid within 3 months before screening, pregnancy, breast feeding, upper urinary tract infection, fever >38° C., serum WBC count greater than 12,000/mm^3, urinary catheterization within 1 week, urinary tract anomalies, interstitial cystitis, urolithiasis, renal insufficiency, cancer history, immunocompromised, organ transplant history, pelvic organ prolapse stage II or higher, post-voiding residual urine more than 100 ml, stress or urge urinary incontinence, and positive urine culture during screening. 45 patients are screened for eligibility, with only 27 patients remained and 18 patients are excluded. The screening in the current trial is defined as Visit 1.
For analyzing results of the current study, all statistical analyses are performed using MedCalc Statistical Software version 19.0.3. The Mann-Whitney U test and Student's t-test are used to compare medians and means, respectively. Contingency tables are constructed for comparisons using a chi-square test and Fisher's exact test. The Kaplan—Meier method is used for the construction of survival curves. A log-rank test and Cox proportional hazard model are used to compare recurrence-free survival duration between groups. All tests are 2-tailed. A P-value <0.05 is considered significant.

bladder epithelium = assay: Rat UTI model (Example 1): H/E staining of bladder tissue; format: in vivo, Sprague-Dawley (SD) rats; details: PPS 30 mg/kg/day oral Day −14 to Day 0; rats sacrificed at Day 14
Source text: as §1, §2

peripheral WBC count = assay: Rat UTI model, low-dose PPS (Example 3): peripheral WBC count percentages; format: in vivo, SD rats; details: 8.5 mg/kg/day oral Day −14 to Day 0
Source text: as §4
FIG. 11 is a bar chart comparing the peripheral WBC count percentages of the control group, the reduced PPS dosage group, and the UTI model group, in accordance with an embodiment of the present disclosure. The WBC counts reflects a current urinary tract infection episode, the WBC count percentage can be a relative indicator comparing the WBC counts before the infection and after the infection. The WBC count percentages in FIG. 11 are used to examine the efficacy of the reduced PPS dosage in the rat UTI model. The WBC counts on Day 0 in the control group, the reduced PPS dosage group, and the UTI group are designated as 100% in FIG. 11. The WBC count percentages of the 3 groups are elevated on Day 1, reflecting more WBCs entering the peripheral blood after the infection. On Day 3, the WBC count percentage of the low UROpre group is about 120%, whereas the WBC count percentage of the UTI group is about 130%.

TNF-α = assay: Rat UTI model (Example 1): Luminex assay of peripheral blood TNF-α; format: in vivo, Sprague-Dawley (SD) rats; details: PPS 30 mg/kg/day oral Day −14 to Day 0; Day 3 and Day 14
Source text: as §1, §2, §3

[8] = in vivo
Protocol: The 27 patients remained are randomized to a PPS group (N=13) and a control group (N=14). The PPS are orally administered to the PPS group according to a continuous daily dosing regimen of 100 mg, 3 times a day for the first 8 weeks (total administered amount is 300 mg PPS per day). Then, the dosing regimen is changed to 100 mg 2 times a day for the remaining 8 weeks (total administered amount is 200 mg PPS per day). The PPS can be taken either 1 hour before or 2 hours after meal. Any forms of UTI prophylaxis or treatment, including antibiotics, hyaluronic acid instillation, cranberry, nonsteroidal anti-inflammatory drugs, or steroids, are forbidden in the study period of the current trial. […] The patients in both groups are visited every four week from the 0th week (Visit 2), the 4th week (Visit 3), the 8th week (Visit 4), the 12th week (Visit 5), to the 16th week (Visit 6), and Visit 6 is marked as the end of the current trial.
The patients are required to report relevant urinary tract symptoms to an investigator, during each of the visits. […] Information regarding adverse events, including grade of severity (according to National Cancer Institute Common Terminology Criteria for Adverse Events, version 5.0), timing, and their relationship with the medication assessed by the investigator, are also recorded at each of the visits. […]

For pentosan polysulfate sodium [PPS], the solubility in water [1] is given as “up to 50%”, the “urine bacterial counts compared with UTI model group” value ([2]; PPS 30 mg/kg/day oral Day −14 to Day 0, UPEC on Day 1, Day 1, Day 3 and Day 7) is given as “lower than the urine bacterial counts in the UTI model group” and the urine bacterial counts ([2]; PPS 30 mg/kg/day oral gavage Day −14 to Day 0, Day 0) is given as “below 10^3 CFU/mL”. The “overall effect on UTI in the rats” value ([2]; PPS oral 30 mg/kg/day for 14 days) was “effectively reduces UTI”, the “peripheral RBC counts, difference among groups” value [3] was “no significant differences” and the “peripheral WBC counts compared with UTI model group” value ([4]; Day 1, Day 3 and Day 7) was “fewer than the WBC counts in the UTI model group”. The “peripheral WBC counts, time course” value ([4]; after Day 3) was “in steady decline after Day 3”, the “peripheral IL-1β level compared with UTI model group” value (IL-1β) was “significantly lower than the UTI model group” and the “therapeutic effect in the rat UTI model” value ([5]; 8.5 mg/kg/day orally administered PPS, 14 days) was “therapeutically effective”. The “urine bacterial counts compared with UTI model group” value ([5]; normal PPS dosage 30 mg/kg/day oral Day −14 to Day 0 (UROpre)) was “lower than the UTI model group”, the “urine bacterial counts compared with UTI model group” value ([5]; reduced PPS dosage 8.5 mg/kg/day oral Day −14 to Day 0 (low UROpre)) was “lower than the UTI model group” and the “adverse effect: abdominal pain” value [6] was 2%. For the same substance, the “adverse effect: diarrhea” value [6] was 1-14.9%, the “adverse effect: dizziness” value [6] was 1% and the “adverse effect: dyspepsia” value [6] was 2%. The “adverse effect: headache” value [6] was 1-2.9%, the “adverse effect: liver function abnormalities” value [6] was 1-2% and the “adverse effect: nausea” value [6] was 1.4%-7.9%. For the same substance, the “adverse effect: rash” value [6] was 3%, the “adverse effect: rectal hemorrhage” value [6] was 4% and the “overall UTI recurrence free survival compared with control group (Kaplan-Meier)” value ([7]; 26 patients, log-rank test p=0.0004) was “significantly higher in the PPS group than in the control group”. The “UTI recurrence, %” value ([7]; PPS group N = 12, 300 mg/day for 8 weeks then 200 mg/day for 8 weeks, oral, 16 weeks, control 64.3%, p <0.001) was 0%, the “lower urinary tract symptoms or positive urine analysis” value ([7]; PPS group, 16-week study period) was “none of the patients in the PPS group had lower urinary tract symptoms nor positive urine analysis” and the “efficacy in preventing rUTI in the human subjects” value ([7]; about 3.34 mg/kg/day, total 200 mg PPS per day, remaining 8 weeks) was “also therapeutically effective”. The “efficacy in preventing rUTI in the human subjects” value ([7]; less than 5 mg/kg/day, total 300 mg PPS per day (reference weight 60 kg), first 8 weeks) was “proven to be therapeutically effective”, the “protective effect in preventing rUTI in the human subjects” value ([7]; oral administration of PPS, conclusion of the trial) was “excellent protective effect” and the “H/E staining result of bladder tissue” value (bladder epithelium) was “fresh layer of accumulated epithelial cells”. For the same substance, the “peripheral WBC count percentage (Day 0 = 100%)” value (peripheral WBC count; Day 1) was “elevated”, the “peripheral WBC count percentage (Day 0 = 100%)” value (peripheral WBC count; Day 3, UTI group about 130%) was “about 120%” and the “peripheral WBC count percentage (Day 0 = 100%)” value (peripheral WBC count; Day 7) was “about 60%”. For the same substance, the “peripheral WBC count percentage compared with UTI group” value (peripheral WBC count; Day 7) was “significantly lower than that of the UTI group”, the “peripheral TNF-α levels compared with UTI model group” value (TNF-α) was “lower TNF-α levels than the UTI model group” and the “adverse effects observed in the trial” value [8] was “none of the above adverse effects are observed”. For the same substance, the “complete blood counts, liver function tests and coagulant-related tests” value [8] was “no abnormalities”.
